These results are taken from patent US20040224958A1, “Pyridopyrimidinone derivatives for treatment of neurodegenerative disease” (priority 2000, published 2004).

The target of one assay is cdk4/D (Homo sapiens, UniProt P11802). As to the kind of experiment: Cyclin-Dependent Kinase 4 (cdk4) Assay. In kind it is biochemical. Particulars: read-out: cdk4/D IC50.
For the next assay, the target named is Cdk5/p25 (Homo sapiens, UniProt Q00535). As to the kind of experiment: Cyclin-Dependent Kinase 5 High Throughput Screening (cdk5-HTS) Assay. Type of assay: biochemical. Particulars: high throughput screen. The method in brief:
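Cdk5/p25 (1.0 μg/mL) phosphorylates GST-RbCOOH (20 μg/mL) in 50 mM Tris pH 7.4 with 10 mM MgCl2 and 20 μM ATP spiked with [γ33P]ATP, 30 min at room temperature. After EDTA stop, substrate captured on glutathione-coated plates; 33P incorporation counted by scintillation; IC50 determined.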

The next assay concerns the target cdk2/cyclinE (Homo sapiens, UniProt P24941). As to the kind of experiment: Cyclin-Dependent Kinase Assay cdk2/cyclinE. The following applies: cdk2/E IC50.
A further assay concerns the target cdk2/cyclinA (Homo sapiens, UniProt P24941). Briefly: Cyclin-Dependent Kinase Assay cdk2/cyclinA. The following applies: cdk2/A IC50.
For another assay, the target named is cdc2/cyclinB (Homo sapiens, UniProt P06493). As to the kind of experiment: Cyclin-Dependent Kinase Assay cdc2/cyclinB.
Chain of cdc2/cyclinB (P06493 whole entry): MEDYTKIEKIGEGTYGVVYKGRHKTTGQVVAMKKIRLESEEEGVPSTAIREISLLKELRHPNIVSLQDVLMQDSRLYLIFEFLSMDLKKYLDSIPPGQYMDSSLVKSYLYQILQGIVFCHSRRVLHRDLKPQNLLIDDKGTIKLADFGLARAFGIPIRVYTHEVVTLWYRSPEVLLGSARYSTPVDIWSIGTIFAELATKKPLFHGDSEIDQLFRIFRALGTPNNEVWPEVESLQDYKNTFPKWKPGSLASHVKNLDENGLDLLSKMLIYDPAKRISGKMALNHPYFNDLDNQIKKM
Chain of cdc2/cyclinB (P14635 whole entry, further chain): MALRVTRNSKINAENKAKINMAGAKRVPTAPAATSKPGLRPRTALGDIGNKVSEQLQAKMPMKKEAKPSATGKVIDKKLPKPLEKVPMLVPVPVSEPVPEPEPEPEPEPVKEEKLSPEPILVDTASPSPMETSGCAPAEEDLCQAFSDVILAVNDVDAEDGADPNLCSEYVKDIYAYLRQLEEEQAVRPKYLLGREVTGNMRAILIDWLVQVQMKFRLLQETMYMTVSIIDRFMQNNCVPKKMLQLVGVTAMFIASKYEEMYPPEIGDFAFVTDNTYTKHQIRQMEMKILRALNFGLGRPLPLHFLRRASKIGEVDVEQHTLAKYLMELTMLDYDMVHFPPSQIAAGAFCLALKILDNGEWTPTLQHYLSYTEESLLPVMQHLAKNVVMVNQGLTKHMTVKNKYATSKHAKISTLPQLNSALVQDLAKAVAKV

Chain of cdk4/D (P11802 whole entry): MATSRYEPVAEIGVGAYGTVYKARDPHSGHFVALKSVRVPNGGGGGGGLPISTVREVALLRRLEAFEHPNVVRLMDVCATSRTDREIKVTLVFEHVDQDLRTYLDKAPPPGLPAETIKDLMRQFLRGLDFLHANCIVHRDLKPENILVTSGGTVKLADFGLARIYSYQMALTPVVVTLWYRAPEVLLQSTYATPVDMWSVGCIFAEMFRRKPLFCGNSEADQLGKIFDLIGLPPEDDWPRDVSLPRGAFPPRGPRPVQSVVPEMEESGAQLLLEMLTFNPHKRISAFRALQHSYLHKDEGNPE
Chain of cdk4/D (P24385 whole entry, further chain): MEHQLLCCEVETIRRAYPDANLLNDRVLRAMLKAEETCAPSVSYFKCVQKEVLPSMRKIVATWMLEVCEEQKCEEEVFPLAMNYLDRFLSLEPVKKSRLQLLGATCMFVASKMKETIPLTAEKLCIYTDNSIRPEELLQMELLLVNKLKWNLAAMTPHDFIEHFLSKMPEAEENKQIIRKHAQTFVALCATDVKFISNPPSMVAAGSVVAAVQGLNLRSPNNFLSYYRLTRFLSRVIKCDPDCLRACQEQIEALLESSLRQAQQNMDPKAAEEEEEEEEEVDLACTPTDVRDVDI

As to `CCC(CC)n1c(=O)ccc2cnc(Nc3ccc(F)cc3F)nc21` [Example 483, 2-(2,4-Difluoro-phenylamino)-8-(1-ethyl-propyl)-8H-pyrido[2,3-d]pyrimidin-7-one], the IC50 at cdk4/D was determined as 1330 nM; on Cdk5/p25 it was 169 nM; on cdk2/cyclinE it was 354 nM; against cdk2/cyclinA it was 1670 nM; against cdc2/cyclinB it was 731 nM.
Taken in the same sequence, the figures for `CCC(CC)n1c(=O)ccc2cnc(Nc3ccc(C#N)cc3)nc21` [Example 484] were 187 nM, 40.8 nM, 136 nM, 363 nM and 192 nM.
Regarding `CCC(CC)n1c(=O)ccc2cnc(Nc3ccc(Cl)c(C(F)(F)F)c3)nc21` [Example 486, 2-(4-Chloro-3-trifluoromethyl-phenylamino)-8-(1-ethyl-propyl)-8H-pyrido[2,3-d]pyrimidin-7-one], the IC50 at cdk4/D is 1030 nM; at Cdk5/p25 it was 82.8 nM; against cdk2/cyclinE, 467 nM; at cdk2/cyclinA it was 920 nM; on cdc2/cyclinB, 218 nM.
Taken in the same sequence, the figures for `CCC(CC)n1c(=O)ccc2cnc(Nc3cccc(C(F)(F)F)c3)nc21` [Example 487, 8-(1-Ethyl-propyl)-2-(3-trifluoromethyl-phenylamino)-8H-pyrido[2,3-d]pyrimidin-7-one] were 692 nM, 76.8 nM, 210 nM, 728 nM and 177 nM.
Taken in the same sequence, the figures for `CCC(CC)n1c(=O)ccc2cnc(Nc3ccc(Br)c(C(F)(F)F)c3)nc21` [Example 488, 2-(4-Bromo-3-trifluoromethyl-phenylamino)-8-(1-ethyl-propyl)-8H-pyrido[2,3-d]pyrimidin-7-one] were 2240 nM, 124 nM, 494 nM, 1980 nM and 446 nM.
Taken in the same sequence, the figures for `CCC(CC)n1c(=O)ccc2cnc(Nc3cccc(I)c3)nc21` [Example 490, 8-(1-Ethyl-propyl)-2-(3-iodo-phenylamino)-8H-pyrido[2,3-d]pyrimidin-7-one] were 350 nM, 49.2 nM, 79.7 nM, 753 nM and 86.7 nM.
On to `CCC(CC)n1c(=O)ccc2cnc(Nc3ccc(C)c(C)c3)nc21` [Example 491, 2-(3,4-Dimethyl-phenylamino)-8-(I-ethyl-propyl)-8H-pyrido[2,3-d]pyrimidin-7-one], for which the IC50 on cdk4/D came to 260 nM; against Cdk5/p25 it was 44.4 nM; against cdk2/cyclinE, 179 nM; against cdk2/cyclinA, 436 nM; on cdc2/cyclinB, 151 nM.
On to `CCC(CC)n1c(=O)ccc2cnc(Nc3ccc4[nH]ccc4c3)nc21` [Example 492, 8-(1-Ethyl-propyl)-2-(1H-indol-5-ylamino)-8H-pyrido[2,3-d]pyrimidin-7-one], for which the IC50 at cdk4/D came to 124 nM; against Cdk5/p25, 86 nM; against cdk2/cyclinE, 163 nM; on cdk2/cyclinA it was 600 nM; against cdc2/cyclinB, 145 nM.
Regarding `CCC(CC)n1c(=O)ccc2cnc(Nc3ccc4[nH]c(=O)[nH]c4c3)nc21` [Example 493, 8-(1-Ethyl-propyl)-2-(2-oxo-2,3-dihydro-1H-benzimidazol-5-ylamino)-8H-pyrido[2,3-d]pyrimidin-7-one], the IC50 at cdk4/D was 25 nM; against Cdk5/p25, 8.7 nM; at cdk2/cyclinE it was 12 nM; against cdk2/cyclinA it was 50.5 nM; at cdc2/cyclinB, 14.5 nM.
Consider `CCC(CC)n1c(=O)ccc2cnc(Nc3ccc(NC(=O)OC(C)(C)C)cc3)nc21` [Example 494, {4-[8-(1-Ethyl-propyl)-7-oxo-7,8-dihydro-pyrido[2,3-d]pyrimidin-2-ylamino]-phenyl}-carbamic acid tert-butyl ester], for which the IC50 on cdk4/D was found to be 230 nM; at Cdk5/p25, 72 nM; against cdk2/cyclinE, 127 nM; on cdk2/cyclinA, 440 nM; on cdc2/cyclinB it was 102 nM.
The matching figures for `CCC(CC)n1c(=O)ccc2cnc(Nc3ccc(O)cc3F)nc21` [Example 495, 8-(1-Ethyl-propyl)-2-(2-fluoro-4-hydroxy-phenylamino)-8H-pyrido[2,3-d]pyrimidin-7-one]: 570 nM, 108 nM, 147 nM, 650 nM and 215 nM.
Taken in the same sequence, the figures for `CCC(CC)n1c(=O)ccc2cnc(Nc3ccc(O)c(Cl)c3)nc21` [Example 496, 2-(3-Chloro-4-hydroxy-phenylamino)-8-(1-ethyl-propyl)-8H-pyrido[2,3-d]pyrimidin-7-one] were 280 nM, 17.5 nM, 31 nM, 89.5 nM and 24 nM.
Taken in the same sequence, the figures for `CCC(CC)n1c(=O)ccc2cnc(Nc3cc(Cl)c(O)c(Cl)c3)nc21` [Example 497, 2-(3,5-Dichloro-4-hydroxy-phenylamino)-8-(1-ethyl-propyl)-8H-pyrido[2,3-d]pyrimidin-7-one] were 480 nM, 55.5 nM, 80 nM, 160 nM and 46.5 nM.
Take `CCC(CC)n1c(=O)ccc2cnc(Nc3cccc([N+](=O)[O-])c3)nc21` [Example 498, 8-(1-Ethyl-propyl)-2-(3-nitro-phenylamino)-8H-pyrido[2,3-d]pyrimidin-7-one]: the IC50 at cdk4/D turned out to be 170 nM; against Cdk5/p25, 68 nM; against cdk2/cyclinE, 47 nM; against cdk2/cyclinA, 200 nM; at cdc2/cyclinB, 49.5 nM.
With `CCC(CC)n1c(=O)ccc2cnc(Nc3ccc(OC)c(OC)c3)nc21` [Example 499, 2-(3,4-Dimethoxy-phenylamino)-8-(1-ethyl-propyl)-8H-pyrido[2,3-d]pyrimidin-7-one], the IC50 on cdk4/D is 192 nM; on Cdk5/p25, 12.5 nM; against cdk2/cyclinE, 46.3 nM; at cdk2/cyclinA, 115 nM; at cdc2/cyclinB it was 46 nM.
`CCC(CC)n1c(=O)ccc2cnc(Nc3ccc(Cl)c(C)c3)nc21` [Example 500, 2-(4-Chloro-3-methyl-phenylamino)-8-(1-ethyl-propyl)-8H-pyrido[2,3-d]pyrimidin-7-one]: the IC50 worked out at 98 nM on cdk4/D; 16 nM against Cdk5/p25; 74 nM against cdk2/cyclinE; 340 nM against cdk2/cyclinA; 110 nM against cdc2/cyclinB.
On to `CCC(CC)n1c(=O)ccc2cnc(Nc3ccc(F)c(C(F)(F)F)c3)nc21` [Example 502, 8-(1-Ethyl-propyl)-2-(4-fluoro-3-trifluoromethyl-phenylamino)-8H-pyrido[2,3-d]pyrimidin-7-one], for which the IC50 on cdk4/D was found to be 350 nM; against Cdk5/p25, 21 nM; against cdk2/cyclinE it was 68 nM; on cdk2/cyclinA it was 360 nM; at cdc2/cyclinB, 100 nM.
The matching figures for `CCC(CC)n1c(=O)ccc2cnc(Nc3ccc(OC)c(F)c3)nc21` [Example 505, 8-(1-Ethyl-propyl)-2-(3-fluoro-4-methoxy-phenylamino)-8H-pyrido[2,3-d]pyrimidin-7-one]: 34 nM, 14 nM, 67 nM, 220 nM and 73 nM.
Consider `CCC(CC)n1c(=O)ccc2cnc(Nc3ccc(C#N)c(NC(C)=O)c3)nc21` [Example 506, N-{2-Cyano-5-[8-(-ethyl-propyl)-7-oxo-7,8-dihydro-pyrido[2,3-d]pyrimidin-2-ylamino]-phenyl}-acetamide], for which the IC50 was found to be 36 nM at cdk4/D; 44 nM against Cdk5/p25; 93 nM at cdk2/cyclinE; 400 nM at cdk2/cyclinA; 110 nM on cdc2/cyclinB.
As to `CCC(CC)n1c(=O)ccc2cnc(Nc3ccc(Br)c(Cl)c3)nc21` [Example 507, 2-(4-Bromo-3-chloro-phenylamino)-8-(1-ethyl-propyl)-8H-pyrido[2,3-d]pyrimidin-7-one], the IC50 at cdk4/D is 150 nM; against Cdk5/p25, 64 nM; at cdk2/cyclinE, 310 nM; against cdk2/cyclinA, 1300 nM; against cdc2/cyclinB it was 330 nM.
Taken in the same sequence, the figures for `CCC(CC)n1c(=O)ccc2cnc(Nc3cc(OC)cc(C(F)(F)F)c3)nc21` [Example 508, 8-(1-Ethyl-propyl)-2-(3-methoxy-5-trifluoromethyl-phenylamino)-8H-pyrido[2,3-d]pyrimidin-7-one] were 140 nM, 70 nM, 280 nM, 2100 nM and 230 nM.
The matching figures for `CCC(CC)n1c(=O)ccc2cnc(Nc3ccc(F)c(F)c3)nc21` [Example 509, 2-(3,4-Difluoro-phenylamino)-8-(I-ethyl-propyl)-8H-pyrido[2,3-d]pyrimidin-7-one]: 98 nM, 26 nM, 64 nM, 240 nM and 190 nM.
As for `CCC(CC)n1c(=O)ccc2cnc(Nc3cc(F)cc(F)c3)nc21` [Example 510, 2-(3,5-Difluoro-phenylamino)-8-(1-ethyl-propyl)-8H-pyrido[2,3-d]pyrimidin-7-one], the IC50 at cdk4/D came to 270 nM; on Cdk5/p25, 120 nM; against cdk2/cyclinE it was 210 nM; at cdk2/cyclinA it was 310 nM; at cdc2/cyclinB, 180 nM.
